The record followed here is patent publication US7968097B2, “Identification of Hla-A2-presented T-cell epitopes derived from the oncofoetal antigen-immature laminin receptor protein and uses thereof” (Immatics Biotechnologies GmbH, priority 2005, dated 2011).

One assay relates to peptide-pulsed T2 cells. Briefly: Lysis of peptide-pulsed T2 target cells by peptide-specific CTL (peptide titration). The assay is classed as cell-based, human.
The test system of assay [1] is peptide-pulsed 51Cr-labelled T2 cells. As to the kind of experiment: Cold target inhibition assay. The assay is classed as cell-based, human. The source says: CTL derived from healthy HLA-A*0201^+ individuals were generated using a protocol described elsewhere (Zeis M, Siegel S, Schmitz M et al. Induction of cytotoxic T lymphocytes against hematologic neoplasms by survivin RNA-transfected dendritic cells. J Immunol. 2003; 170, 5391-5397.). For the induction of autologous OFA/ILR, peptide-specific CTL obtained from patients with AML and CLL, CD8^+ T cells were separated from PBMC using immunomagnetic beads (MACS®, Miltenyi, Bergisch-Gladbach, Germany), cultured with autologous OFA/iLR peptide-pulsed fully matured DC and restimulated with autologous peptide-pulsed PBMC in the presence of IL-2 (1 ng/ml, CellConcepts, Weisskirch, Germany). After at least four weekly restimulations, CTL reactivity was determined in a conventional 4 h ^51Chromium release assay. Cold target inhibition assays and antibody blocking experiments were performed as previously described (Zeis M, Siegel S, Schmitz M et al. Induction of cytotoxic T lymphocytes against hematologic neoplasms by survivin RNA-transfected dendritic cells. J Immunol. 2003; 170, 5391-5397.).
A cold target inhibition assay was performed. To examine whether ILR1-specific T cells lyse ILR1 peptide-pulsed T2 cells specifically and in the context of HLA-A*02, cold target inhibition assays were performed as follows: ^51Cr-labelled T2 cells were loaded with peptide in a concentration of 10 microgram peptide/10^6 T2 cells/ml. A total of 2×10^5 unlabelled, T2 cells, which had equally been loaded with the same or a control peptide, were then added in a volume of 50 microliter AIMV to 10^4 peptide-pulsed, ^51Cr-labelled T2 cells. Effector T cells specific for ILR1 were added and a ^51Cr-release assay was performed as described above.
A cold target inhibition assay was performed as described under “T2+ILR1” above.

Regarding “ILKEPVHGV [HIV peptide, reference compound]”, the “recognition/lysis of T2 cells pulsed with the peptide” value in the assay on peptide-pulsed T2 cells is reported as “not recognized”. Take “LYLKNYRIA (listed as Homo sapiens) [Survivin, reference compound]”: the “competition of cold targets loaded with the peptide for lysis” value was “neither peptides irrelevant for ILR1-specific CTL (Survivin and ILR2), nor unloaded T2 cells, which display empty HLA-A*02 molecules on their cell surfaces, compete for lysis” in assay [1] (hot target ILR1-peptide-pulsed T2, effectors ILR1-specific CTL, 10 microgram peptide/10^6 T2 cells/ml); “neither peptides irrelevant for ILR2-specific CTL (Survivin and ILR1), nor unloaded T2 cells, which display empty HLA-A*02 molecules on their cell surfaces, compete for lysis” in assay [1] (hot target ILR2-peptide-pulsed T2, effectors ILR2-specific CTL).
